According to PMC8129719 (CPT: Pharmacometrics & Systems Pharmacology, 2021):
Where “and” joins values, the source holds several entries; their conditions need not be identical. Equal values may be shown once. Where a name gives a salt, the structure may show the parent alone. Read-outs that look alike come from different tables or passages of the source.

Legend:
[1] = assay type: in vivo, human; details: for CL renal: female, human, plasma and urine, oral; for contribution of renal elimination to total clearance: from model CLr and CLnr; for CLr, IIV (SE%) / k syn, IIV (SE%): interindividual variability; for CLnr, population estimate (SE%): nonrenal clearance of biomarker; for V, population estimate (SE%): volume of distribution of biomarker; for k syn, population estimate (SE%): zero-order synthesis rate
[2] = probenecid 500 mg 4 times a day; ref Willemin et al. (accepted for publication); cited from earlier work
[3] = probenecid 1000 mg single dose, 14 healthy volunteers, digitized data; cited from earlier work
[4] = Population PK model of probenecid plasma data; assay type: in vivo, human; details: for CL, IIV (SE%) / V, IIV (SE%): interindividual variability

| Compound | CL renal [1] | contribution of renal elimination to total clearance [1] | CLr, IIV (SE%) [1] | k syn, IIV (SE%) [1] | k syn, IOV (SE%) ([1]; interoccasion variability between the two phases) | CLnr, population estimate (SE%) [1] | V, population estimate (SE%) [1] | k syn, population estimate (SE%) [1] | fold change of plasma AUC0-24 h following probenecid [2] | mean plasma AUC0-tlast ratio, observed [3] | CLr, IOV (SE%) ([1]; interoccasion variability) | ka, population estimate (SE%) ([4]; absorption rate constant) | CL, IIV (SE%) [4] | V, IIV (SE%) [4] | CL, IIV (SE%) ([4]; listed as probenecid) | V, IIV (SE%) ([4]; listed as probenecid) | V, population estimate (SE%) ([4]; probenecid one-compartment model) |
| --- | --- | --- | --- | --- | --- | --- | --- | --- | --- | --- | --- | --- | --- | --- | --- | --- | --- |
| Cc1ncc(CO)c(C(=O)O)c1O [PDA, Pyridoxic acid] | 253 mL/min | 82% | 27% and 27 (15) % | 32% and 32 (34) % | 22 (57) % | 3.23 (41) L/h | 9.34 (56) L | 58.6 (26) µg/h | 3.9 fold | 1.95 |  |  |  |  |  |  |  |
| COc1cc(CC(=O)O)ccc1O [HVA, homovanillic acid] | 340 mL/min | 94% | 23 (26) % | 27 (19) % |  | 1.29 (69) L/h | 105 (35) L | 212 (16) µg/h | 2.2 fold |  | 5 (48) % |  |  |  |  |  |  |
| CCCN(CCC)S(=O)(=O)c1ccc(C(=O)O)cc1 [Probenecid, probenecid] |  |  |  |  |  |  |  |  |  |  |  | 0.74 (45) /h | 23 (23) % | 40 (29) % | 23% | 40% | 15 (22) L |
| C[C@H](CCC(=O)NCC(=O)O)[C@H]1CC[C@H]2[C@@H]3[C@H](O)C[C@@H]4C[C@H](OS(=O)(=O)O)CC[C@]4(C)[C@H]3CC[C@]12C [GCDCA-S, glycochenodeoxycholate sulfate] |  |  |  |  |  |  |  |  | 1.9 fold |  |  |  |  |  |  |  |  |
